Assay results taken from patent US20260242359A1, “IRHOM2 INHIBITORS AND USES THEREOF” (NEW YORK SOCIETY FOR THE RELIEF OF THE RUPTURED AND …, priority 2023, published 2026).

Tested on: PMA-induced release of endogenous TGFα from human PC3 prostate cancer cells
Test: Example 17: ELISA-based TGFα release assay, PMA-induced, PC3 prostate cancer cells
Type: cell-based
Settings: 10 μM final concentration, PMA 25 ng/ml, delta Buffer stimulated vs unstimulated = 100% inhibition; for inhibition at 10 µM: Homo sapiens
Procedure: In the following study, ELISA-based TGFα release assays were performed to analyze the inhibitory effects of Compounds 1, 2, 3, 4, 5, and 7 on PMA-induced release of endogenous TGFα, from human PC3 prostate cancer cells. The ELISA-based TGFα release assay that was used in this example is described below.
In brief, on day 1, Nunc black MaxiSorp® 96-well plates (Thermo Fisher Scientific, USA) were coated overnight with 100 μl per well of goat anti-human TGFα capture antibody (provided as part of the DuoSet ELISA kit) at 0.4 μg/ml TBS at 4° C.
75,000 PC3 (European Collection of Authenticated Cell Cultures, UK) cells in 100 μl of normal growth medium were seeded in each well of F-bottom 96-well cell culture plates (Corning, USA) and incubated at 37° C., 5% CO2 overnight. On day 2, the capture antibody solution was removed and MaxiSorp® plates were blocked with 300 μl per well of TBS, 1% BSA at room temperature for 5 hours. Meanwhile, cells were washed twice with PBS and pre-incubated in 80 μl of OptiMEM medium with 20 μl per well of OptiMEM medium supplemented with Batimastat (BB94, Abcam, UK) at 50 μM as positive control (for a final concentration of 10 μM in the resulting 100 μl sample volume), compounds of the invention at 50 μM (for a final concentration of 10 μM in the resulting 100 μl sample volume) and in case of Buffer stimulated and unstimulated controls with DMSO (Carl Roth, Germany) at 50 μM (for a final concentration of 10 μM in the resulting 100 μl sample volume) at 37° C., 5% CO2 for 30 minutes. Subsequently, cells (except those for unstimulated controls) were stimulated with 20 μl per well of PMA (Sigma-Aldrich, USA) at 150 ng/ml in OptiMEM for a final concentration of 25 ng/ml at 37° C., 5% CO2 for 2 hours. In parallel, blocking buffer was removed from the MaxiSorp® plates and plates were washed 4 times with 350 μl TBS-T (Carl Roth, Germany) per well on a 96-head plate washer (Tecan Group, Switzerland). To avoid drying-up, 20 μl TBS were added to each well of the MaxiSorp® plates immediately, followed by the transfer of 80 μl cell-free supernatant per sample. Additionally, 100 μl recombinant human TGFα protein (provided as part of the DuoSet ELISA kit) diluted in TBS at defined concentrations were added to the plate as standard references. Thereafter, 100 μl biotinylated goat anti-human TGFα detection antibody (provided as part of the DuoSet ELISA kit) at 37.5 ng/ml in TBS were added per well and, protected from direct light, plates were incubated at room temperature for 2 hours. After 4 times washing with 350 μl TBS-T (Carl Roth, Germany) per well on a 96-head plate washer (Tecan Group, Switzerland) and careful removal of all buffer traces after the fourth cycle, 100 μl streptavidin-AP (R&D Systems, USA) diluted 1:10,000 in TBS were added to each well and, again protected from direct light, plates were incubated at room temperature for 30 minutes. Following another round of 4 times washing with 350 μl TBS-T (Carl Roth, Germany) per well on a 96-head plate washer (Tecan Group, Switzerland) and careful removal of all buffer traces after the fourth cycle, 100 μl AttoPhos substrate solution (Promega, USA) per well was added for incubation in the dark at room temperature for 1 hour. Using an infinite M1000 (Tecan Group, Switzerland) microplate reader, the fluorescence of each well was collected at an excitation wavelength of 435 nm and an emission wavelength of 555 nm.
The delta between Buffer stimulated and Buffer unstimulated was defined 100% inhibition.

Row | SMILES | inhibition at 10 µM (PC-3, 2 h) | inhibition at 10 µM (PC-3, 2 hours) | inhibition of PMA-induced release of TGFα from PC3 cells (2 hours)
1 | Cc1c(C(=O)NCc2cccs2)sc(=O)n1Cc1ccccc1F [Compound 5] | 11.3% |  | 
2 | Cc1c(C(=O)NCc2cccs2)sc(=O)n1Cc1ccccc1 [Compound 4] | 14.1% |  | 
3 | CCOC(=O)c1ccc(Nc2nc3nonc3n3nnnc23)cc1 [Compound 2] | 9.1% |  | 
4 | Cc1c(C(=O)NCc2ccco2)sc(=O)n1Cc1ccccc1F [Compound 7] | 27.3% |  | 
5 | CCC(=O)NCCc1c(/C=C2/C(=O)NC(=O)N(c3ccc(C)cc3C)C2=O)[nH]c2ccccc12 [Compound 1] |  | 25.5% | 
6 | O=C(c1c(Cl)cccc1Cl)N1CCC(Cc2ccc(F)cc2)CC1 [Compound 3] | 12.5% |  | 
7 | CNC(=O)[C@H](Cc1ccccc1)NC(=O)[C@H](CC(C)C)[C@H](CSc1cccs1)C(=O)NO [Batimastat, reference compound] | 104% |  | 102.5%
